# What was measured:
# [1] = target: T1, Lysine-specific demethylase 5B (Homo sapiens, UniProt Q9UGL1); assay: Inhibition of KDM5B (unknown origin)
# [2] = target: T1, Lysine-specific demethylase 5B; assay: Inhibition of KDM5B (unknown origin) at 10 uM relative to control
# [3] = tested on: MGC-803; assay: Antitumor activity against human MGC-803 cells assessed as inhibition of cell proliferation incubated for 72 hrs by MTT assay; type: functional, cell-based; conditions: MGC-803, 72 h
# [4] = tested on: MCF7; assay: Antitumor activity against human MCF7 cells assessed as inhibition of cell proliferation incubated for 72 hrs by MTT assay; type: functional, cell-based; conditions: MCF7, 72 h
# [5] = tested on: PC-3; assay: Antitumor activity against human PC-3 cells assessed as inhibition of cell proliferation incubated for 72 hrs by MTT assay; type: functional, cell-based; conditions: PC-3, 72 h
# [6] = tested on: DU-145; assay: Antiproliferative activity against human DU-145 cells assessed as inhibition of cell proliferation incubated for 72 hrs by MTT assay; type: functional, cell-based; conditions: DU-145, 72 h
# [7] = tested on: LNCaP; assay: Antiproliferative activity against human LNCaP cells assessed as inhibition of cell proliferation incubated for 72 hrs by MTT assay; type: functional, cell-based
# [8] = tested on: HepG2; assay: Antitumor activity against human HepG2 cells assessed as inhibition of cell proliferation incubated for 72 hrs by MTT assay; type: functional, cell-based; conditions: HepG2, 72 h
# T1 sequence (Q9UGL1 whole entry): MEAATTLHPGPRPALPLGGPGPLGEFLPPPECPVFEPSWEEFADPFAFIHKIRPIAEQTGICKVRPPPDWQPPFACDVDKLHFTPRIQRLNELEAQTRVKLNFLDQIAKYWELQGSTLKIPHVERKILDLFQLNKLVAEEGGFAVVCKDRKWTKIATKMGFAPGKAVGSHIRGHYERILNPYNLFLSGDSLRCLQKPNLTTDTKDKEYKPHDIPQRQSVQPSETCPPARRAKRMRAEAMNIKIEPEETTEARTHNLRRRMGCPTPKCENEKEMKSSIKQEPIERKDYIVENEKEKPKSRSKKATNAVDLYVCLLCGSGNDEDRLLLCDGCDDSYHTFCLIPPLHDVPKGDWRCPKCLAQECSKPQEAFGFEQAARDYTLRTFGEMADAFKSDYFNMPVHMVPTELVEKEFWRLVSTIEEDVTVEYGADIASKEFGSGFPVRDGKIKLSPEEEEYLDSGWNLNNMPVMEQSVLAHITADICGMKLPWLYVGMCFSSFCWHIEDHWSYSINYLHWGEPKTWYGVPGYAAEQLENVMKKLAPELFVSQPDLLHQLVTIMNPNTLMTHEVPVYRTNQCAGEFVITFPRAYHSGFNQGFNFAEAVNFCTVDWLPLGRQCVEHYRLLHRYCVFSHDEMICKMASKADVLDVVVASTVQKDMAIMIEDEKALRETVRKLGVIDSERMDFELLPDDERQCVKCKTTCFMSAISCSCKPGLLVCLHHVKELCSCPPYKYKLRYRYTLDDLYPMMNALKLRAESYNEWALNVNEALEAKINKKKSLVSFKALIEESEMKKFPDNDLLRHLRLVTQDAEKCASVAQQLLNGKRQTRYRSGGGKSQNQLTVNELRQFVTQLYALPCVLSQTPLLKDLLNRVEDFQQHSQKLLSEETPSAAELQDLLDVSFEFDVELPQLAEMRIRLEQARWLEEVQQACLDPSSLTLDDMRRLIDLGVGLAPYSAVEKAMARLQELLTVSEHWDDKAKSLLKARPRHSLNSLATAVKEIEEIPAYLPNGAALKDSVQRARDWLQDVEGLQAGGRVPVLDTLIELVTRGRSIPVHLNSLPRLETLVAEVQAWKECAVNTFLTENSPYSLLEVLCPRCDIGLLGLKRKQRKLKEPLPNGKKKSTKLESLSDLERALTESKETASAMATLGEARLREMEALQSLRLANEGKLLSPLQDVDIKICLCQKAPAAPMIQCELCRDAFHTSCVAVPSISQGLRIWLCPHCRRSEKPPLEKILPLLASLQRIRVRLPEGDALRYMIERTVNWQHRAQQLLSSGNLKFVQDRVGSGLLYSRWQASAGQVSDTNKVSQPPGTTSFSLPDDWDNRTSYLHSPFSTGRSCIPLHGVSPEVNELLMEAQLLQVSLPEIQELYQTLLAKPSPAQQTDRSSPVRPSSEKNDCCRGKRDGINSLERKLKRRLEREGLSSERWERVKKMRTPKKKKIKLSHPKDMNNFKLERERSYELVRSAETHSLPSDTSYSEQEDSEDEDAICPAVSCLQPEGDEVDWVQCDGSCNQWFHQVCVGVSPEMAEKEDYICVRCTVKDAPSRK
SMILES,IC50 [1] [µM],inhibition [2] [%],further results
Cc1ccc(-n2ncc3c(C(=O)NCc4cn(-c5ccc(F)cc5)nn4)cc(-c4ccc5ccccc5c4)nc32)cc1,> 10,23,
Cc1ccc(-n2ncc3c(C(=O)NCc4cn(-c5ccccc5)nn4)cc(-c4ccc5ccccc5c4)nc32)cc1,2.17,74,
Cc1ccc(-n2ncc3c(C(=O)NCCN4CCN(C)CC4)cc(-c4ccc5ccccc5c4)nc32)cc1C,1.94,89,
CN1CCN(CCNC(=O)c2cc(-c3ccccc3)nc3c2cnn3-c2cccc(Cl)c2)CC1,> 10,6,
CN1CCN(CCNC(=O)c2cc(-c3ccc(Cl)cc3)nc3c2cnn3-c2ccccc2)CC1,> 10,43,
Cc1ccc(-n2ncc3c(C(=O)NCCN4CCCC4)cc(-c4ccc5ccccc5c4)nc32)cc1,7.35,58,
Cc1ccc(-n2ncc3c(C(=O)NCCN4CCN(C)CC4)cc(-c4ccc5ccccc5c4)nc32)cc1,1.35,79,
Cc1ccc(-n2ncc3c(C(=O)Nc4cccnc4)cc(-c4ccc5ccccc5c4)nc32)cc1,> 10,-3,
CN1CCN(CCNC(=O)c2cc(-c3ccc4ccccc4c3)nc3c2cnn3-c2ccc(C(F)(F)F)cc2)CC1,> 10,33,
COc1ccc(-c2cc(C(=O)NCCN3CCN(C)CC3)c3cnn(-c4ccccc4)c3n2)cc1,0.237,88,
CN1CCN(CCNC(=O)c2cc(-c3ccccc3)nc3c2cnn3-c2ccccc2)CC1,0.749,93,
Cc1cccc(-c2cc(C(=O)NCCN3CCN(C)CC3)c3cnn(-c4ccccc4)c3n2)c1,2.81,67,
Cc1ccc(-n2ncc3c(C(=O)NCc4ccccc4)cc(-c4ccc5ccccc5c4)nc32)cc1,> 10,27,
CC(C)n1ncc2c(C(=O)NCc3cn(Cc4ccccc4)nn3)cc(-c3ccc4ccccc4c3)nc21,7.7,57,
Cc1ccc(-n2ncc3c(C(=O)NCCN4CCN(C)CC4)cc(-c4ccccc4)nc32)cc1,1.67,95,
CN1CCN(CCNC(=O)c2cc(-c3ccc4ccccc4c3)nc3c2cnn3-c2ccc(Br)cc2)CC1,> 10,46,
O=c1[nH]cc(F)c(=O)[nH]1 [FLUOROURACIL],,,IC50 [3]: 10.1 µM; IC50 [4]: 15.1 µM; IC50 [5]: 8.41 µM; IC50 [6]: 8.58 µM; IC50 [7]: 7.93 µM
Cc1ccc(-n2ncc3c(C(=O)NCCN(C)C)cc(-c4ccc5ccccc5c4)nc32)cc1,5.42,64,
Cc1ccc(-n2ncc3c(C(=O)NCc4cn(Cc5ccccc5)nn4)cc(-c4ccc5ccccc5c4)nc32)cc1,3.93,72,
CN1CCN(CCNC(=O)c2cc(-c3ccccc3)nc3c2cnn3-c2ccc(Cl)cc2)CC1,> 10,40,
CN1CCN(CCNC(=O)c2cc(-c3ccccc3)nc3c2cnn3-c2ccccc2Cl)CC1,> 10,21,
O=C(O)CNC(=O)C(=O)O [N-OXALYLGLYCINE],920,,
CC(C)c1ccc(-n2ncc3c(C(=O)NCCN4CCN(C)CC4)cc(-c4ccccc4)nc32)cc1,3.99,83,
Cc1cc(C)cc(-n2ncc3c(C(=O)NCCN4CCN(C)CC4)cc(-c4ccccc4)nc32)c1,> 10,20,
Cc1ccc(-n2ncc3c(C(=O)NCc4cn(-c5cccc(Br)c5)nn4)cc(-c4ccc5ccccc5c4)nc32)cc1,9.45,51,
CCc1ccc(-c2cc(C(=O)NCCN3CCN(C)CC3)c3cnn(-c4ccccc4)c3n2)cc1,0.376,83,

SMILES,IC50 [1] [µM],inhibition [2] [%],further results
Cc1cc(C)cc(-c2cc(C(=O)NCCN3CCN(C)CC3)c3cnn(-c4ccc5ccccc5c4)c3n2)c1,> 10,35,
Cc1cccc(-n2ncc3c(C(=O)NCCN4CCN(C)CC4)cc(-c4ccccc4)nc32)c1,> 10,14,
CN1CCN(CCNC(=O)c2cc(-c3ccc(Br)cc3)nc3c2cnn3-c2ccccc2)CC1,> 10,31,
Cc1ccc(-n2ncc3c(C(=O)NCc4cn(-c5ccc(C)c(C)c5)nn4)cc(-c4ccc5ccccc5c4)nc32)cc1,9.37,51,
Cc1ccc(-c2cc(C(=O)NCCN3CCN(C)CC3)c3cnn(-c4ccccc4)c3n2)cc1,0.658,79,
Cc1ccc(-n2ncc3c(C(=O)NCCN4CCN(C)CC4)cc(-c4ccccc4)nc32)cc1C,3.69,79,
O=C(O)CCNc1cc(N2CCc3ccccc3CC2)nc(-c2ccccn2)n1,,,IC50 [3]: 29.3 µM; IC50 [4]: 33.7 µM; IC50 [5]: 20.3 µM; IC50 [8]: 39.8 µM
Cc1ccccc1-n1ncc2c(C(=O)NCCN3CCN(C)CC3)cc(-c3ccc4ccccc4c3)nc21,3.34,86,
Cc1ccc(-n2ncc3c(C(=O)NCCN4CCCCC4)cc(-c4ccc5ccccc5c4)nc32)cc1,> 10,40,
C#CNC(=O)c1cc(-c2ccc3ccccc3c2)nc2c1cnn2-c1ccc(C)cc1,> 10,28,
CC(C)c1ccc(-n2ncc3c(C(=O)NCCN4CCN(C)CC4)cc(-c4ccc5ccccc5c4)nc32)cc1,3.08,86,
Cc1ccccc1-n1ncc2c(C(=O)NCCN3CCN(C)CC3)cc(-c3ccccc3)nc21,4.17,83,
CN1CCN(CCNC(=O)c2cc(-c3ccccc3)nc3c2cnn3-c2ccc(C(F)(F)F)cc2)CC1,> 10,20,
CC(C)c1ccc(-c2cc(C(=O)NCCN3CCN(C)CC3)c3cnn(-c4ccccc4)c3n2)cc1,0.132,87,
Cc1ccc(-n2ncc3c(C(=O)NCc4cn(-c5cccc(F)c5)nn4)cc(-c4ccc5ccccc5c4)nc32)cc1,5.26,71,
Cc1ccc(-n2ncc3c(C(=O)NCc4cn(Cc5ccc(C#N)cc5)nn4)cc(-c4ccc5ccccc5c4)nc32)cc1,6.38,63,
Cc1ccc(-n2ncc3c(C(=O)Nc4ccccc4)cc(-c4ccc5ccccc5c4)nc32)cc1,> 10,-1,
O=C(NCc1cn(Cc2ccccc2)nn1)c1cc(-c2ccc3ccccc3c2)nc2c1cnn2-c1ccc(C(F)(F)F)cc1,6.27,63,
Cc1ccc(-n2ncc3c(C(=O)NC4CCCC4)cc(-c4ccc5ccccc5c4)nc32)cc1,> 10,5,
Cc1cccc(-n2ncc3c(C(=O)NCCN4CCN(C)CC4)cc(-c4ccc5ccccc5c4)nc32)c1,9.43,53,
Cc1ccccc1-c1cc(C(=O)NCCN2CCN(C)CC2)c2cnn(-c3ccccc3)c2n1,6.15,60,
Cc1ccc(-n2ncc3c(C(=O)NCc4cn(-c5ccc(I)cc5)nn4)cc(-c4ccc5ccccc5c4)nc32)cc1,6.58,58,
Cc1ccc(-n2ncc3c(C(=O)NCc4cn(-c5ccc(C)cc5C)nn4)cc(-c4ccc5ccccc5c4)nc32)cc1,> 10,17,
Cc1ccc(-n2ncc3c(C(=O)NCc4cn(Cc5ccc(C(F)(F)F)cc5)nn4)cc(-c4ccc5ccccc5c4)nc32)cc1,6.97,58,
CN1CCN(CCNC(=O)c2cc(-c3ccccc3)nc3c2cnn3-c2ccc(Br)cc2)CC1,> 10,44,

# Source: ChEMBL document CHEMBL5346927, “Discovery of a novel 1H-pyrazole- [3,4-b] pyridine-based lysine demethylase 5B inhibitor with potential anti-prostate cancer activity that perturbs the phosphoinositide 3-kinase/AKT pathway” (Eur J Med Chem, 2023)
